According to US20140275090A1, “BILE ACID RECYCLING INHIBITORS FOR TREATMENT OF PRIMARY SCLEROSING CHOLANGITIS AND INFLAMMATORY BOWEL DISEASE” (Lumena Pharmaceuticals, Inc., priority 2013, published 2014):

Experiments:
serum cholesterol = test: Serum total, HDL and non-HDL cholesterol, hamsters dosed 28 days; assay type: in vivo, golden Syrian hamster; settings: hamster
Excerpt: Male golden Syrian hamsters (126-147 gm) were obtained from Charles Rivers Laboratories and were single housed in a constant temperature environment with alternating 12-hour light and dark cycles. Hamsters were fed Teklad 7001 rodent meal chow at libitum for two weeks before the experimental studies began and switched to Teklad 7001 rodent meal chow supplemented with 0.24% cholesterol on day one of the 28-day experiment. Water was continuously available to the animals. Hamsters were assigned to groups in a manner that normalized each group by pretreatment body weights. SD-5613 was dissolved in an aqueous solution of 0.2% (w/v) Tween 80 and administered Q.D. by intragastric gavage between 9 a.m. and 10 a.m. each morning using a syringe fitted with a flexible feeding tube. Blood samples were collected after 14- and 28-day treatment periods by orbital sinus and cardiac puncture, respectively. Hamsters were anesthetized but not fasted prior to blood collections. Fecal samples were collected during a 48-hour period at the end of days 14 and 28 (i.e. days 13-14 and 27-28). Hamsters were sacrificed using carbon dioxide asphyxiation to obtain the following tissue samples: liver, kidneys, colon and cecum.
Blood was collected at 14 and 28 days from non-fasted hamsters and put into serum separator tubes. The blood cells were separated from the serum by centrifugation at 2000×g for 20 minutes and the serum decanted. Total cholesterol was measured using a Cobas Mira Classic clinical chemistry analyzer (Roche Diagnostic Systems, Indianapolis, Ind.). This analyzer used the cholesterol oxidase reaction to produce hydrogen peroxide which was measured colorimetrically. The cholesterol reagent (Roche Diagnostic Systems) was reconstituted according to package insert. The reagent was calibrated using Roche Calibrator Serum. Commercial bi-level quality control material was analyzed to verify calibration and reagent performance (QC1, QC2-Bio-Rad Laboratories, Irvine, Calif.). The cholesterol content of each sample was measured at 500 nm and 37° C. in a calibrated analyzer by mixing 3 μl of sample with 150 μl cholesterol reagent and 40 μl water.
The Unimate HDL Direct Cholesterol assay (DHDL, Roche Diagnostics) was based on the […] of synthetic polymers and polyanions to the surface of lipoproteins. The combined action of polymers, polyanions and detergent solubilizes cholesterol from HDL, but transforms LDL, VLDL, and chylomicrons into detergent-resistant forms. Solubilized cholesterol was oxidized by the sequential enzymatic action of cholesterol esterase and cholesterol oxidase. The H2O2 produced in this reaction was reacted with chromogens to form a colored dye. The increase in absorbance at 550 nm was directly proportional to the HDL cholesterol concentration of the sample. The test was performed using a Cobas Mira Classic clinical chemistry analyzer (Roche Diagnostic Systems). The DHDL reagent (Roche Diagnostic Systems) was reconstituted according to the package insert. The reagent was calibrated using Roche HDL Direct Calibrator. Commercial bi-level quality control material was analyzed to verify calibration and reagent performance (Liquichek Lipids Control, Level 1 & 2, Bio-Rad Laboratories, Irvine, Calif.). A 2.4 μl aliquot of serum was analyzed in the presence of 240 μl of Reagent 1, 80 μl of Reagent 2 and 5 μl of water at 37° C. and 550 nm wavelength. Triglycerides were hydrolyzed by lipoprotein lipase to glycerol and fatty acids. Glycerol was then phosphorylated to glycerol-3-phosphate by adenosine 5-triphosphate (ATP) in a reaction catalyzed by glycerol kinase (GK). The oxidation of glycerol-3-phosphate was catalyzed by glycerolphosphate oxidase (GPO) to form dihydroxyacetone phosphate and hydrogen peroxide. The hydrogen peroxide reacted with 4-cholorophenol and 4-aminophenazone in the presence of peroxidase to form a quinoneimine complex, which was read at 490-550 nm. […]

serum bile acids [1] = test: Inhibition of the postprandial rise in SBA (AUC 0-240 min) in dogs, LUM001 compared to cholestyramine; assay type: in vivo, dog
Protocol: LUM001 was dissolved in 0.2% Tween 80 at concentrations that required the administration of 0.2 ml dosing solution/kg of body weight at each dose tested. Cholestyramine was suspended in water at concentrations that required the administration of 2.5 ml/kg (500 mg/kg) and 1 ml/kg (200 mg/kg). The appropriate volume of solution formulation for each animal was placed into a gelatin capsule, Torpac Inc., size 13, Batch 594, East Hanover, N.J. and administered per os. Test compounds were administered as single oral doses to groups of dogs, 3 to 9 dogs per group at varying dosages. LUM001 was given at 0, 0.02, 0.05, 0.2, 0.6, 2, 5 or 15 mg/kg. Cholestyramine was administered at 200 or 500 mg/kg. […] No dog received any one compound dosage more than once. SBA was measured by an enzymatic assay. SBA values are expressed as μg of total bile acids/ml of serum.

serum bile acids [2] = test: Fasting and post-prandial peak serum bile acids in children and adolescents after eight days of LUM001; assay type: in vivo, human; settings: LUM001 treated patients
Protocol: The efficacy of LUM001 was determined by measuring total serum bile acids after eight days of dosing in children and adolescents under the age of eighteen. Thirty minutes before the next drug administration, at approximately 8 am in the morning, serum bile acid levels were measured. The child had refrained from food for 12 hours prior to this sample thus providing a fasted level of serum bile acid. After breakfast, serum bile acids were measured for up to the next 4 hours (8 am to noon) and the peak serum bile acid concentration noted.

SMILES: CCCCC1(CCCC)CS(=O)(=O)c2ccc(N(C)C)cc2[C@@H](c2ccc(OCc3ccc(C[N+]45CCN(CC4)CC5)cc3)cc2)[C@H]1O [LUM001]
- HDL-cholesterol (serum cholesterol; 5 mg/kg/day): 127 ± 10 mg/dL
- HDL-cholesterol, % change from vehicle group (serum cholesterol; 5 mg/kg/day): (−22) %
- Non-HDL-cholesterol (serum cholesterol; 5 mg/kg/day): 99 ± 9 mg/dL
- Non-HDL-cholesterol, % change from vehicle group (serum cholesterol; 5 mg/kg/day): (−37) %
- Serum Total Cholesterol (serum cholesterol; 5 mg/kg/day): 225 ± 16 mg/dL
- Serum Total Cholesterol, % change from vehicle group (serum cholesterol; 5 mg/kg/day): (−29) %
- HDL-cholesterol (serum cholesterol; 15 mg/kg/day): 115 ± 7 mg/dL
- HDL-cholesterol, % change from vehicle group (serum cholesterol; 15 mg/kg/day): (−29) %
- Non-HDL-cholesterol (serum cholesterol; 15 mg/kg/day): 86 ± 8 mg/dL
- Non-HDL-cholesterol, % change from vehicle group (serum cholesterol; 15 mg/kg/day): (−45) %
- Serum Total Cholesterol (serum cholesterol; 15 mg/kg/day): 201 ± 14 mg/dL
- Serum Total Cholesterol, % change from vehicle group (serum cholesterol; 15 mg/kg/day): (−37) %
- HDL-cholesterol (serum cholesterol; 50 mg/kg/day): 102 ± 4 mg/dL
- HDL-cholesterol, % change from vehicle group (serum cholesterol; 50 mg/kg/day): (−37) %
- Non-HDL-cholesterol (serum cholesterol; 50 mg/kg/day): 76 ± 4 mg/dL
- Non-HDL-cholesterol, % change from vehicle group (serum cholesterol; 50 mg/kg/day): (−52) %
- Serum Total Cholesterol (serum cholesterol; 50 mg/kg/day): 178 ± 6 mg/dL
- Serum Total Cholesterol, % change from vehicle group (serum cholesterol; 50 mg/kg/day): (−44) %
- inhibition of postprandial serum bile acids AUC compared to cholestyramine (serum bile acids [1]; cholestyramine 200 or 500 mg/kg, AUC 0-240 min): superior inhibition
- effect on serum bile acids (serum bile acids [1]; single oral doses 0.02-15 mg/kg): significantly decreased
- decrease in fasting serum bile acid level vs placebo (serum bile acids [2]): 24%
- decrease in post-prandial peak serum bile acid level vs placebo (serum bile acids [2]): 23%
